Data as given in patent publication US5070210A, “Novel ketenimines as intermediates for insecticides” (ICI Americas Inc., priority 1990, dated 1991).

Legend:
Format in all cases: in vivo
[1] = system: Housefly [Musca domestica]; test: Housefly insecticidal test; details: μg per 25 female flies; mortality after 48 hours
Outline: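 LC50, as μg compound per 25 female flies, comes from dosage-mortality curves with doses from 100 μg downward. Residues were made by evaporating acetone plus 0.01% peanut oil in dishes, onto which 1-2-day-old females were caged; deaths were counted after 48 hours.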

[2] = system: Tobacco Budworm [Heliothis virescens (Fabricius)] larvae; test: Tobacco budworm contact test; details: second-instar larvae, percent in solution, 5 days
Procedure: (§1) The compounds in Tables 1 and 2 above were tested for insecticidal activity using the following testing procedures. LC50 values, based on the results of these tests and calculated according to dosage-mortality curves, are expressed in Table 3.
Tobacco Budworm [Heliothis virescens (Fabricius)]:
(a) Contact: Test compounds were diluted in a 50-50 acetone-water solution. Cotton (Gossypium sp.) cotyledons were immersed in the test solutions for 2-3 seconds and placed on a wire screen to dry. The dried leaves were placed in petri dishes containing a moistened piece of filter paper and infested with 5 second-instar tobacco budworm larvae. The dishes were placed in a high humidity chamber for 5 days, and percent mortality of the larvae recorded. Test concentrations ranged from 0.1% downward. The LC-50 values are expressed below in Table 3 under the heading "TBW-C" in terms of percent of the test compound in the solution.

[3] = system: Tobacco Budworm [Heliothis virescens (Fabricius)] eggs; test: Tobacco budworm egg test; details: 2-day old eggs, percent in solution
Outline: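 LC50 values (percent test compound in the dip solution) were calculated from dosage-mortality curves. Egg patches, 2 days old, were dipped in acetone solutions at concentrations from 0.1% downward and held at 78° F on rearing medium until control larvae hatched and fed.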

[4] = system: Beet Armyworm (Spodoptera exigua); test: Beet armyworm insecticidal test; details: second-instar larvae, percent in solution; five days
Procedure: as §1
Beet Armyworm (Spodoptera exigua):
Test compounds were diluted in a 50-50 acetone-water solution. Young leaves of sugar beets (Beta vulgaris) were immersed in the test solutions for 2-3 seconds and placed on a wire screen to dry. The dried leaves were placed in petri dishes containing a moistened filter paper and infested with five second-instar beet armyworm larvae. The dishes were placed in a high humidity chamber. Mortality of the larvae was recorded five days later. Test concentrations ranged from 0.1% downward. The LC-50 values are expressed below in Table 3 under the heading "BAW" in terms of percent of the test compound in solution.

[5] = system: Cabbage Looper [Trichoplusia ni (Hubner)]; test: Cabbage looper insecticidal test; details: second-instar larvae, percent in solution; 3-5 days
Outline: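 Leaf dip, squash cotyledons, 50-50 acetone-water, top dose 0.1% and lower. 5 second-instar larvae/dish, moist filter paper, high-humidity chamber. Mortality at 3-5 d; LC50 (% in solution) from dosage-mortality curves.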

[6] = system: Aster Leafhopper [Macrosteles fascifrens (Stal)]; test: Aster leafhopper insecticidal test; details: adults/nymphs, percent in solution; 48 hours
Outline: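 LC50 values, given as percent of test compound in the dip solution, were derived from dosage-mortality curves over concentrations from 0.05% downward. Mortality was counted 48 hours after ten leafhopper adults/nymphs were enclosed on treated seedlings. The seedlings were oats, about 10 cm tall, briefly dipped in 50-50 acetone-water.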

[7] = system: Maize weevil [Sitophilus Zeamais (Motschulsky)]; test: Maize weevil insecticidal test; details: adult weevils, percent in solution; 48 hours
Outline: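 LC50, in percent of compound in solution, was derived from dosage-mortality curves after 48 h at about 25 °C. Ten adult weevils per container fed on four corn seeds briefly immersed in acetone:water (50:50) solutions of up to 0.01% and dried.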

| Structure (SMILES) | LC50, HF [1] [µg] | LC50, TBW, C (TBW-C) [2] [%] | LC50, TBW, E (TBW-E) [3] [%] | LC50, BAW [4] [%] | LC50, CL [5] [%] | LC50, LH [6] [%] | LC50, MW [7] [%] |
| --- | --- | --- | --- | --- | --- | --- | --- |
| CC(C)C(=Nc1ccc(F)c(F)c1)OCc1cccc(Oc2ccccc2)c1 [Compound 54] | 3.5 | 0.001 | 0.017 | 0.004 | 0.0003 | 0.00015 |  |
| FC(F)(F)c1ccc(N=C(OCc2cccc(Oc3ccccc3)c2)C(Cl)Cl)cc1 [Compound 61] | 29 | 0.03 | 0.03 | 0.002 | 0.001 | > 0.05 | > 0.01 |
| FC(F)(F)c1ccc(N=C(OCc2cccc(Oc3ccccc3)c2)C2CC2)cc1 [Compound 62] | 20 | 0.0015 | 0.025 | 0.02 | 0.005 | > 0.05 | > 0.01 |
| FC(F)(F)c1ccc(N=C(OCc2cccc(Oc3ccccc3)c2)C2CC2)c(Cl)c1 [Compound 65] | > 100 | 0.1 | > 0.1 | > 0.1 | < 0.01 | > 0.05 |  |
| CC(C)C(=Nc1ccc(Cl)c(C(F)(F)F)c1)OCc1cccc(Oc2ccccc2)c1 [Compound 71] | 50 | 0.0008 | 0.065 | 0.0004 | 0.0006 | 0.002 |  |
| CC(C)C(=Nc1cccc(C(F)(F)F)c1)OCc1ccc(F)c(Oc2ccccc2)c1 [Compound 80] | 4.5 | 0.00075 | 0.005 | 0.0018 | 0.0003 | 0.0001 |  |
| CC(C)C(=Nc1ccc(Br)c(F)c1)OCc1ccc(F)c(Oc2ccc(F)cc2)c1 [Compound 282] | 16 | 0.0007 | 0.02 | 0.0025 | 0.00007 |  | 0.008 |
| CC(C)C(=Nc1ccc2c(c1)OC(C)(C)O2)OCc1ccc(F)c(Oc2ccc(F)cc2)c1 [Compound 283] | 23 | 0.0009 | 0.016 | 0.0013 | 0.00009 |  | > 0.01 |
| CC(C)C(=Nc1ccc2c(c1)OC(F)(F)O2)OCc1ccc(F)c(Oc2ccc(F)cc2)c1 [Compound 284] | 39 | 0.0002 |  | 0.0025 | 0.00005 | 0.0003 | 0.0075 |
| CC(C)C(=Nc1ccc(Br)cc1)OCc1ccc(F)c(Oc2ccc(F)cc2)c1 [Compound 333] | 15 | 0.00075 | 0.025 | > 0.1 | 0.00024 |  | > 0.01 |
| CC(C)C(=Nc1ccc(I)cc1)OCc1ccc(F)c(Oc2ccc(F)cc2)c1 [Compound 335] | 34 | 0.00025 | 0.05 | > 0.1 | 0.00027 |  | > 0.01 |
| CC(C)C(=Nc1ccc(F)c(Cl)c1)OCc1cc(Oc2ccc(F)cc2)c(F)cc1F [Compound 343] | 40 | 0.00025 | > 0.1 | > 0.1 | 0.00027 |  | > 0.01 |
| CC(C)C(=Nc1ccc2c(c1)OC(F)(F)O2)OCc1cccc(Oc2ccc(Cl)cc2)c1 [Compound 450] | 72 | 0.0001 | 0.015 | 0.005 | 0.00016 |  | 0.01 |
